Results on one compound are retold here after patent US20100222293A1, “MODULATION OF SPERM MOTILITY” (priority 2007, published 2010).

The subject of this assay is sperm from asthenozoospermic subjects. Description: Sperm motility parameters after incubation with extracellular ATP (automated cell motility analyzer). It is filed as cell-based, human. The following applies: 2.5 mM ATP, 60 minutes. The method, then: Semen samples were collected after 3 days of sexual abstinence in sterile containers. After liquefaction at room temperature for 30 minutes, standard seminal parameters were examined according to the WHO laboratory manual [supra]. For sperm movement analysis, a semen aliquot (10 μl) was placed in a Makler chamber, ten different fields per chamber were randomly examined, and at least 100 sperm for each field of the chamber were scored. Percentages of motile sperm and movement characteristics were analysed using an automated analyzer at 37° C. (CellTrack VP110, Motion Analysis Corporation, Palo Alto, Calif., USA). Sperm velocity and kinetic parameters were evaluated for only motile sperm and were expressed as mean values. Standard deviations were calculated and P values of significance were determined by the Student's t-test. The following sperm parameters were determined: curvilinear velocity (VCL) (also referred to as track speed and is the velocity (in μm/sec) of a sperm along individual tracks; straight progressive velocity (VSL) (the average velocity (in μm/sec) measured in a straight line from the beginning to the end of track); amplitude of lateral head displacement (ALH) (mean width (in μm) of sperm head oscillation); and linearity coefficient (LIN=VSL/VCL×100) (the degree (in %) of straightness of the sperm track). To analyze the effects of extracellular ATP on motility parameters of sperm from the asthenozoospermic subjects, sperm samples from the subjects were washed once by the addition of BWW medium (Biggers-Whitten-Whittingham medium; 95 mM NaCl, 4.8 mM KCl, 1.7 mM CaCl2, 1.2 mM KH2PO4, 1.2 MgSO4, 25 NaHCO3, 5.6 mM fructose, 0.25 mM sodium pyruvate, 3.7 ml/l 60% sodium lactate syrup, 10^4 IU/ml penicillin, and 10 mg/ml streptomycin) and centrifugation at 800×g for 10 minutes. After centrifugation and discarding of the supernatant, the sperm pellets were suspended in BWW medium (at a concentration of 10×10^6 sperm/ml), divided into two equivalent aliquots, and allowed to recover for 15 minutes. One aliquot was then incubated at 37° C. with ATP (2.5 mM final concentration from a 100 mM stock solution made by diluting ATP with physiological solution (0.9% NaCl in distilled water) and the second aliquot was incubated at 37° C. with same amount of physiological solution only (as a negative control). After 60 minutes incubation, sperm motility parameters were determined as described above. The effects of extracellular ATP on sperm motility parameters of sperm from subjects with asthenozoospermia after washing from seminal fluid and resuspension in BWW medium (10×10^6 sperm/ml) were examined.

As for `Nc1ncnc2c1ncn2[C@@H]1O[C@H](COP(=O)(O)OP(=O)(O)OP(=O)(O)O)[C@@H](O)[C@H]1O` [ATP, adenosine 5′-triphosphate], the “effect on curvilinear velocity (VCL)” value is listed as “No significant effects” and the “effect on lateral sperm head displacement (ALH)” value is on record as “No significant effects”. Where the note is “37° C., washed sperm in BWW medium, 27 asthenozoospermic subjects, control 23.81±6.04, p=0.0024”, the “progressive velocity (VSL)” value came to 28.85±7.27 μm/sec. Besides, the “linearity (LIN)” value (37° C., washed sperm in BWW medium, control 29.59±6.25, p=0.0004) is recorded as 37.7±7.9.
